Measurements published in PubChem BioAssay AID1259407 (Chemical Carcinogenesis Research Information System (CCRIS), 2018).
The source made the active and inactive calls. How the calls were made is not given here.

System: CCRIS mutagenicity, Ames/micronucleus/aberration tests
Experiment: CCRIS mutagenicity studies
[1] = Test System: AMES SALMONELLA TYPHIMURIUM, Strain/Indicator: TA98, Metabolic Activation: NONE, Method: STANDARD PLATE
[2] = Test System: AMES SALMONELLA TYPHIMURIUM, Strain/Indicator: TA100, Metabolic Activation: NONE, Method: STANDARD PLATE
[3] = Test System: AMES SALMONELLA TYPHIMURIUM, Strain/Indicator: TA98, Metabolic Activation: RAT, LIVER, S-9, AROCLOR 1254, Method: PREINCUBATION
[4] = Test System: AMES SALMONELLA TYPHIMURIUM, Strain/Indicator: TA98, Metabolic Activation: NONE, Method: PREINCUBATION
[5] = Test System: AMES SALMONELLA TYPHIMURIUM, Strain/Indicator: TA100, Metabolic Activation: NONE, Method: PREINCUBATION
[6] = Test System: AMES SALMONELLA TYPHIMURIUM, Strain/Indicator: TA1535, Metabolic Activation: NONE, Method: PREINCUBATION
[7] = Test System: AMES SALMONELLA TYPHIMURIUM, Strain/Indicator: TA1537, Metabolic Activation: NONE, Method: PREINCUBATION

CCCCN(CCC(=O)OC)N=O
mutagenic call (Test System: AMES SALMONELLA TYPHIMURIUM, Strain/Indicator: TA1535, Metabolic Activation: RAT, LIVER, S-9, KC500 OR PHENOBARBITAL, Method: LIQUID SUSPENSION): active; positive

O=[N+]([O-])c1ccc2ccc3cc4c(c5ccc1c2c35)C1OC1[C@@H](O)[C@@H]4O (stereo partly drawn)
mutagenic call (Test System: CHINESE HAMSTER OVARY, Strain/Indicator: CHO-K1-BH4 (HGPRT)/6-THIOGUANINE, Metabolic Activation: NONE): active; positive

CC(C)NCC(=O)NC(=O)C=[N+]=[N-]
mutagenic call (Test System: UDS RODENT CELLS, Strain/Indicator: THY INCORP (NON-S-PHASE), Metabolic Activation: NONE, Method: AUTORADIOGRAPHY): active; positive

O=[N+]([O-])c1ccc2ccc3cccc4cc(O)c1c2c34
mutagenic call [1]: active; positive
mutagenic call (Test System: AMES SALMONELLA TYPHIMURIUM, Strain/Indicator: TA98, Metabolic Activation: RAT, LIVER, S-9, AROCLOR 1254, Method: STANDARD PLATE): active; positive

C[C@H]1CC[C@@H]2[C@@H](C)[C@H]3[C@H](C[C@H]4[C@@H]5CC=C6C[C@@H](O[C@@H]7O[C@H](CO)[C@@H](O[C@@H]8O[C@@H](C)[C@H](O)[C@@H](O)[C@H]8O)[C@H](O)[C@H]7O[C@@H]7O[C@@H](C)[C@H](O)[C@@H](O)[C@H]7O)CC[C@]6(C)[C@H]5CC[C@]34C)N2C1
mutagenic call [1]: inactive; negative
mutagenic call (Test System: AMES SALMONELLA TYPHIMURIUM, Strain/Indicator: TA98, Metabolic Activation: S-9, Method: STANDARD PLATE): inactive; negative
mutagenic call [2]: inactive; negative
mutagenic call (Test System: AMES SALMONELLA TYPHIMURIUM, Strain/Indicator: TA100, Metabolic Activation: S-9, Method: STANDARD PLATE): inactive; negative

CCn1c(N)nc2c3nc(C)cnc3ccc21
mutagenic call [3]: active; positive

c1cnc2c(c1)CCC1OC21 (stereo not drawn)
mutagenic call [2]: inactive; negative
mutagenic call (Test System: AMES SALMONELLA TYPHIMURIUM, Strain/Indicator: TA100, Metabolic Activation: RAT, LIVER, S-9, AROCLOR 1254 (10 OR 20%), Method: STANDARD PLATE): inactive; negative

CN(C)[C@@H]1C(=O)C(C(N)=O)=C(O)[C@@]2(O)C(=O)C3=C(O)c4c(O)cccc4[C@@](C)(O)[C@H]3[C@H](O)[C@@H]12
mutagenic call (End Point: AMES SALMONELLA TYPHIMURIUM, Test System: TA98, Metabolic Activation: NONE, Method: STANDARD PLATE): inactive; negative
mutagenic call (End Point: AMES SALMONELLA TYPHIMURIUM, Test System: TA100, Metabolic Activation: NONE, Method: STANDARD PLATE): inactive; negative
mutagenic call (End Point: IN VITRO CHROMOSOMAL ABERRATIONS, Test System: CHO CELLS, Metabolic Activation: NONE): inactive; negative
mutagenic call (End Point: IN VITRO CHROMOSOMAL ABERRATIONS, Test System: CHO CELLS, Metabolic Activation: RAT, LIVER, S-9, AROCLOR 1254): inactive; negative
mutagenic call (Test System: AMES SALMONELLA TYPHIMURIUM, Strain/Indicator: TA98, Metabolic Activation: HAMSTER, LIVER, S-9, AROCLOR 1254, Method: PREINCUBATION): inactive; negative
mutagenic call [4]: inactive; negative
mutagenic call [3]: inactive; negative
mutagenic call (Test System: AMES SALMONELLA TYPHIMURIUM, Strain/Indicator: TA100, Metabolic Activation: HAMSTER, LIVER, S-9, AROCLOR 1254, Method: PREINCUBATION): inactive; negative
mutagenic call [5]: inactive; negative
mutagenic call (Test System: AMES SALMONELLA TYPHIMURIUM, Strain/Indicator: TA100, Metabolic Activation: RAT, LIVER, S-9, AROCLOR 1254, Method: PREINCUBATION): inactive; negative
mutagenic call (Test System: AMES SALMONELLA TYPHIMURIUM, Strain/Indicator: TA1535, Metabolic Activation: HAMSTER, LIVER, S-9, AROCLOR 1254, Method: PREINCUBATION): inactive; negative
mutagenic call [6]: inactive; negative
mutagenic call (Test System: AMES SALMONELLA TYPHIMURIUM, Strain/Indicator: TA1535, Metabolic Activation: RAT, LIVER, S-9, AROCLOR 1254, Method: PREINCUBATION): inactive; negative
mutagenic call (Test System: AMES SALMONELLA TYPHIMURIUM, Strain/Indicator: TA1537, Metabolic Activation: HAMSTER, LIVER, S-9, AROCLOR 1254, Method: PREINCUBATION): inactive; negative
mutagenic call [7]: inactive; negative
mutagenic call (Test System: AMES SALMONELLA TYPHIMURIUM, Strain/Indicator: TA1537, Metabolic Activation: RAT, LIVER, S-9, AROCLOR 1254, Method: PREINCUBATION): inactive; negative
mutagenic call (Test System: MOUSE LYMPHOMA, Strain/Indicator: L5178Y (TK+/TK-), Metabolic Activation: RAT, LIVER, S-9, AROCLOR 1254, Method: SUSPENSION/PLATE): active; positive

Cc1[nH]c(=O)c(C#N)cc1-c1ccncc1
mutagenic call (Test System: AMES SALMONELLA TYPHIMURIUM, Strain/Indicator: TA97, Metabolic Activation: NONE): inactive; negative
mutagenic call (Test System: AMES SALMONELLA TYPHIMURIUM, Strain/Indicator: TA97, Metabolic Activation: S-9): inactive; negative
mutagenic call (Test System: AMES SALMONELLA TYPHIMURIUM, Strain/Indicator: TA98, Metabolic Activation: NONE): inactive; negative
mutagenic call [4]: inactive; negative
mutagenic call (Test System: AMES SALMONELLA TYPHIMURIUM, Strain/Indicator: TA98, Metabolic Activation: RAT, LIVER, S-9, PHENOBARBITAL AND 5,6-BENZOFLAVONE, Method: PREINCUBATION): inactive; negative
mutagenic call (Test System: AMES SALMONELLA TYPHIMURIUM, Strain/Indicator: TA98, Metabolic Activation: S-9): inactive; negative
mutagenic call [5]: inactive; negative
mutagenic call (Test System: AMES SALMONELLA TYPHIMURIUM, Strain/Indicator: TA100, Metabolic Activation: RAT, LIVER, S-9, PHENOBARBITAL AND 5,6-BENZOFLAVONE, Method: PREINCUBATION): inactive; negative
mutagenic call (Test System: AMES SALMONELLA TYPHIMURIUM, Strain/Indicator: TA100, Metabolic Activation: S-9): inactive; negative
mutagenic call (Test System: AMES SALMONELLA TYPHIMURIUM, Strain/Indicator: TA102, Metabolic Activation: NONE): inactive; negative
mutagenic call (Test System: AMES SALMONELLA TYPHIMURIUM, Strain/Indicator: TA102, Metabolic Activation: S-9): inactive; negative
mutagenic call [6]: inactive; negative
mutagenic call (Test System: AMES SALMONELLA TYPHIMURIUM, Strain/Indicator: TA1535, Metabolic Activation: RAT, LIVER, S-9, PHENOBARBITAL AND 5,6-BENZOFLAVONE, Method: PREINCUBATION): inactive; negative
mutagenic call [7]: inactive; negative
mutagenic call (Test System: AMES SALMONELLA TYPHIMURIUM, Strain/Indicator: TA1537, Metabolic Activation: RAT, LIVER, S-9, PHENOBARBITAL AND 5,6-BENZOFLAVONE, Method: PREINCUBATION): inactive; negative
mutagenic call (Test System: E. COLI, Strain/Indicator: WP2 UVRA, Metabolic Activation: NONE, Method: PREINCUBATION): inactive; negative
mutagenic call (Test System: E. COLI, Strain/Indicator: WP2 UVRA, Metabolic Activation: RAT, LIVER, S-9, PHENOBARBITAL AND 5,6-BENZOFLAVONE, Method: PREINCUBATION): inactive; negative
mutagenic call (Test System: MOUSE LYMPHOMA, Strain/Indicator: L5178Y (TK+/TK-), Metabolic Activation: NONE, Method: SUSPENSION/PLATE): inactive; negative
mutagenic call (Test System: MOUSE LYMPHOMA, Strain/Indicator: L5178Y (TK+/TK-), Metabolic Activation: RAT, LIVER, S-9, PHENOBARBITAL AND 5,6-BENZOFLAVONE, Method: SUSPENSION/PLATE): inactive; negative
